The values that follow come from US20240116857A1 (St. Louis University, priority 2022, published 2024).

Values after ≈ are worked out from the molar mass of the structure shown.

In general, MIC refers to the smallest concentration in the dilution series that meets the test's criterion for growth inhibition. What is called CC50 is the concentration giving 50% cytotoxicity. Lower therefore signals greater toxicity to the cells.

For one data set, the system named is E. coli BW25113. Briefly: MIC, 2-fold broth dilution, E. coli BW25113. It is filed as cell-based, Escherichia coli. The settings on record: E. coli BW25113; asterisk in column >50. (Dilution methods test growth across graded concentrations, often in twofold steps.)
“4,4′-(([1,1′-biphenyl]-4,4′-dicarbonyl)bis(azanediyl))bis(1,2-dimethylpyridin-1-ium) [Example 34]”: the “MIC, μM >50” value was “* (>50)”.

Staying with this data set, now noted: Escherichia coli; E. coli BW25113; asterisk in column 1-10; read-out: MIC, μM 1-10.
Turning to `C[n+]1ccc(Nc2ccc(NC(=O)c3ccc(C(=O)Nc4ccc(Nc5cc[n+](C)cc5)cc4)c(N)c3)cc2)cc1` [Example 30, 4,4′-((((2-aminoterephthaloyl)bis(azanediyl))bis(4,1-phenylene))bis(azanediyl))bis(1-methylpyridin-1-ium)], the MIC was in the range of 1 to 10 µM.
On to `C[N+](C)(C)c1ccc(NC(=O)c2ccc(-c3ccc(C(=O)Nc4ccc([N+](C)(C)C)c(Cl)c4)cc3)cc2)cc1Cl` [Example 39, 4,4′-(([1,1′-biphenyl]-4,4′-dicarbonyl)bis(azanediyl))bis(2-chloro-N,N,N-trimethylbenzenaminium)], for which the MIC was in the range of 1 to 10 µM.
As to `C[n+]1ccc(Nc2ccc(NC(=O)c3ccc(C(=O)Nc4ccc(Nc5cc[n+](C)cc5)cc4)c([N+](=O)[O-])c3)cc2)cc1` [Example 25, 4,4′-((((2-nitroterephthaloyl)bis(azanediyl))bis(4,1-phenylene))bis(azanediyl))bis(1-methylpyridin-1-ium)], the minimum inhibitory concentration (MIC) fell in the range of 1 to 10 µM.
Still for that read-out and setting: with `CN(C)c1ccc(NC(=O)c2ccc(-c3ccc(C(=O)Nc4ccc(N5CCCCC5)cc4)cc3)cc2)cc1` [Example 127] the figure was 1 to 10 µM (≈ 0.519 to 5.19 µg/mL); with `COc1cc(NC(=O)c2ccc(-c3ccc(C(=O)Nc4ccc(N5CCCCC5)cc4)cc3)cc2)ccc1N(C)C` [Example 128], 1 to 10 µM (≈ 0.549 to 5.49 µg/mL).

The data set is the same for the next values; noted with them: Escherichia coli; E. coli BW25113; asterisk in column 10-50; read-out: MIC, μM 10-50.
Regarding `C[n+]1ccc(Nc2ccc(NC(=O)c3ccc(C(=O)Nc4ccc(Nc5cc[n+](C)cc5)cc4)c(C(F)(F)F)c3)cc2)cc1` [Example 47], the MIC fell in the range of 10 to 50 µM.
With `COc1cc(NC(=O)c2ccc(-c3ccc(C(=O)Nc4ccc([N+](C)(C)C)c(OC)c4)cc3)cc2)ccc1[N+](C)(C)C` [Example 35, 4,4′-(([1,1′-biphenyl]-4,4′-dicarbonyl)bis(azanediyl))bis(2-methoxy-N,N,N-trimethylbenzenaminium)], the MIC fell in the range of 10 to 50 µM.
Still for that read-out and setting: the result for `C[n+]1ccc(NC(=O)c2ccc(-c3ccc(C(=O)Nc4cc[n+](C)cc4)cc3)cc2)cc1` [Example 8] reads 10 to 50 µM; that for `C[n+]1ccc(Oc2ccc(NC(=O)c3ccc(C(=O)Nc4ccc(Oc5cc[n+](C)cc5)cc4)c(N)c3)cc2)cc1` [Example 89, 4,4′-((((2-aminoterephthaloyl)bis(azanediyl))bis(4,1-phenylene))bis(oxy))bis(1-methylpyridin-1-ium)], 10 to 50 µM; that for `C#CCCC[N+](C)(C)c1ccc(NC(=O)c2ccc(-c3ccc(C(=O)Nc4ccc([N+](C)(C)C)c(F)c4)cc3)cc2)cc1F` [Example 118], 10 to 50 µM.
On the same count and under the same terms, the result for `C[N+](C)(C)c1ccc(NC(=O)c2ccc(-c3ccc(C(=O)Nc4ccc([N+](C)(C)C)c(Br)c4)cc3)cc2)cc1Br` [Example 86, 4,4′-(([1,1′-biphenyl]-4,4′-dicarbonyl)bis(azanediyl))bis(2-bromo-N,N,N-trimethylbenzenaminium)] reads 10 to 50 µM; that for `Cc1cc(NC(=O)c2ccc(-c3ccc(C(=O)Nc4cc[n+](C)c(C)c4)cc3)cc2)cc[n+]1C` [Example 29, 4,4′-(([1,1′-biphenyl]-4,4′-dicarbonyl)bis(azanediyl))bis(1,2-dimethylpyridin-1-ium)], 10 to 50 µM.

The data set is the same for the next values; noted with them: Escherichia coli; E. coli BW25113; asterisk in column >50; read-out: MIC, μM >50.
Regarding `O=C(Nc1ccc(Nc2ccncc2)cc1)c1ccc(C(=O)Nc2ccc(Nc3ccncc3)cc2)c(F)c1` [Example 51, 2-fluoro-N^1,N^4-bis(4-(pyridin-4-ylamino)phenyl)terephthalamide], the MIC is over 50 µM.
The same measure, in the same setting: with `C[N+](C)(C)c1ccc(NC(=O)c2ccc(-c3ccc(C(=O)Nc4ccc([N+](C)(C)C)c([N+](=O)[O-])c4)cc3C#N)cc2)cc1` [Example 154] the figure was over 50 µM.
On the same count and under the same terms, with `C[N+](C)(C)c1ccc(CNC(=O)c2ccc(-c3ccc(C(=O)NCc4ccc([N+](C)(C)C)cc4)cc3)cc2)cc1` [Example 102, 4,4′-((([1,1′-biphenyl]-4,4′-dicarbonyl)bis(azanediyl))bis(methylene))bis(N,N,N-trimethylbenzenaminium)] the figure was over 50 µM.
On the same count and under the same terms, the result for `C[N+](C)(C)c1ccc(NC(=O)c2ccc(-c3ccc(C(=O)Nc4ccc([N+](C)(C)C)c(N)c4)cc3)c(S(C)(=O)=O)c2)cc1` [Example 147] reads over 50 µM; that for `C[N+](C)(C)c1ccc(NC(=O)c2ccc(-c3ccc(C(=O)Nc4ccc([N+](C)(C)C)c(OCCCCc5cn(CCOCCOCCOCCNC(=O)CCCC[C@@H]6SC[C@@H]7NC(=O)N[C@@H]76)nn5)c4)cc3)cc2)cc1F` [Example 136], over 50 µM.
On to `COc1cc(NC(=O)c2ccc(-c3ccc(C(=O)Nc4ccc([N+]5(C)CCCCC5)cc4)cc3)cc2)ccc1[N+](C)(C)C` [Example 145], for which the MIC is over 50 µM.
Still for that read-out and setting: with `C[n+]1ccc(Nc2ccc(NC(=O)c3ccc(-c4ccccc4)cc3)cc2)cc1` [Example 18, 4-((4-([1,1′-biphenyl]-4-ylcarboxamido)phenyl)amino)-1-methylpyridin-1-ium] the figure was over 50 µM; with `CN(C)c1ccc(NC(=O)c2ccc(Cc3ccc(C(=O)Nc4ccc(N(C)C)cc4)cc3)cc2)cc1` [Example 49, 4,4′-methylenebis(N-(4-(dimethylamino)phenyl)benzamide)], over 50 µM; with `O=C(Nc1ccc(Nc2ccncc2)cc1)c1ccc(C(=O)Nc2ccc(Nc3ccncc3)cc2)cc1` [Example 9, N^1,N^4-bis(4-(pyridin-4-ylamino)phenyl)terephthalamide], over 50 µM.
Same read-out and setting: with `C#CCCCCN(C)c1ccc(NC(=O)c2ccc(-c3ccc(C(=O)Nc4ccc(N(C)C)c(F)c4)cc3)cc2)cc1F` [Example 126] the figure was over 50 µM; with `C[N+](C)(C)c1ccc(NC(=O)c2ccc(-c3ccc(C(=O)Nc4ccc([N+](C)(C)C)cc4)cn3)nc2)cc1` [Example 73, 4,4′-(([2,2′-bipyridine]-5,5′-dicarbonyl)bis(azanediyl))bis(N,N,N-trimethylbenzenaminium)], over 50 µM; with `O=C(Nc1ccc(Nc2ccccn2)cc1)c1ccc(C(=O)Nc2ccc(Nc3ccccn3)cc2)cc1` [Example 10, N^1,N^4-bis(4-(pyridin-2-ylamino)phenyl)terephthalamide], over 50 µM.
Same read-out and setting: the result for `C[N+](C)(C)c1ccc(NC(=O)c2ccc(-c3ccc(C(=O)Nc4ccc([N+](C)(C)C)c(OCCc5cn(CCOCCOCCOCCNC(=O)CCCC[C@@H]6SC[C@@H]7NC(=O)N[C@@H]76)nn5)c4)cc3)cc2)cc1F` [Example 138] reads over 50 µM; that for `CN(C)c1ccc(CNC(=O)c2ccc(-c3ccc(C(=O)NCc4ccc(N(C)C)cc4)cc3)cc2)cc1` [Example 101, N^4,N^4′-bis(4-(dimethylamino)benzyl)-[1,1′-biphenyl]-4,4′-dicarboxamide], over 50 µM; that for `COC(=O)Cn1cc(CCOc2cc(NC(=O)c3ccc(-c4ccc(C(=O)Nc5ccc([N+](C)(C)C)c(F)c5)cc4)cc3)ccc2[N+](C)(C)C)nn1` [Example 107], over 50 µM.
For `COC(=O)Cn1cc(C[N+](C)(C)c2ccc(NC(=O)c3ccc(-c4ccc(C(=O)Nc5ccc([N+](C)(C)C)c(F)c5)cc4)cc3)cc2F)nn1` [Example 108], the MIC was over 50 µM.
As for `C#CCN(C)c1ccc(NC(=O)c2ccc(-c3ccc(C(=O)Nc4ccc(N(C)C)c(F)c4)cc3)cc2)cc1F` [Example 93, N^4-(4-(dimethylamino)-3-fluorophenyl)-N^4′-(3-fluoro-4-(methyl(prop-2-yn-1-yl)amino)phenyl)-[1,1′-biphenyl]-4,4′-dicarboxamide], the MIC is over 50 µM.
In the case of `O=C(Nc1ccc(Nc2ccncc2)cc1)c1ccc(C(=O)Nc2ccc(Nc3ccncc3)cc2)nc1` [Example 79, N^2,N^5-bis(4-(pyridin-4-ylamino)phenyl)pyridine-2,5-dicarboxamide], the MIC is over 50 µM.
For `CN(C)c1ccc(NC(=O)c2ccc(-c3ccc(C(=O)Nc4ccc(N(C)C)c(Cl)c4)cc3)cc2)cc1F` [Example 115], the MIC is over 50 µM.
The same measure, in the same setting: the result for `C[n+]1ccc(Nc2ccc(NC(=O)C3CCC(C(=O)Nc4ccc(Nc5cc[n+](C)cc5)cc4)CC3)cc2)cc1` (stereo not drawn) [Example 69, 4,4′-((((E)-cyclohexanedicarbonylbis(azanediyl))bis(4,1-phenylene))bis(azanediyl))bis(1-methylpyridin-1-ium)] reads over 50 µM.
Turning to `O=C(Nc1ccc(Nc2ccncc2)cc1)c1ccc(-c2ccc(C(=O)Nc3ccc(Nc4ccncc4)cc3)cc2)cc1` [Example 16, N^4,N^4′-bis(4-(pyridin-4-ylamino)phenyl)-[1,1′-biphenyl]-4,4′-dicarboxamide], the MIC is over 50 µM.

Tested on in the next data set: not listed separately
Briefly: Cytotoxicity assay (CellTiter AQueous One Solution, MTS). It counts as cell-based. The settings on record: human, HEK293 cells, 24 h incubation. Here is the method: Cytotoxicity of the compounds was evaluated using the CellTiter AQueous One Solution Cell Proliferation Assay (MTS; Promega) as previously described (2). HEK293 cells were incubated with a 2-fold serially diluted compounds for 24 h at 37° C. with 5% CO2, followed by addition of 20 μL of CellTiter AQueous and further incubated for 4 h at 37° C. The absorbance at 490 nm was recorded using a Tecan Spark 10 M plate reader. All measurements were done in three replicas. The growth curves were then fitted to a sigmoidal equation to determine the cytotoxicity concentration CC50.
In the case of `C[n+]1ccc(Nc2ccc(NC(=O)c3ccc(C(=O)Nc4ccc(Nc5cc[n+](C)cc5)cc4)c(N)c3)cc2)cc1` [Example 30, 4,4′-((((2-aminoterephthaloyl)bis(azanediyl))bis(4,1-phenylene))bis(azanediyl))bis(1-methylpyridin-1-ium)], half-maximal cytotoxicity (CC50 at 24 h) was put at 480 µM.
As for `C[N+](C)(C)c1ccc(NC(=O)c2ccc(-c3ccc(C(=O)Nc4ccc([N+](C)(C)C)c(Cl)c4)cc3)cc2)cc1Cl` [Example 39, 4,4′-(([1,1′-biphenyl]-4,4′-dicarbonyl)bis(azanediyl))bis(2-chloro-N,N,N-trimethylbenzenaminium)], half-maximal cytotoxicity (CC50 at 24 h) was put at 330 µM.
For `C[n+]1ccc(Nc2ccc(NC(=O)c3ccc(C(=O)Nc4ccc(Nc5cc[n+](C)cc5)cc4)c([N+](=O)[O-])c3)cc2)cc1` [Example 25, 4,4′-((((2-nitroterephthaloyl)bis(azanediyl))bis(4,1-phenylene))bis(azanediyl))bis(1-methylpyridin-1-ium)], the CC50 at 24 h worked out at 350 µM.
`C[n+]1ccc(Nc2ccc(NC(=O)c3ccc(C(=O)Nc4ccc(Nc5cc[n+](C)cc5)cc4)c(C(F)(F)F)c3)cc2)cc1` [Example 47] yielded a CC50 at 24 h of 350 µM.
On the same count and under the same terms, the result for `COc1cc(NC(=O)c2ccc(-c3ccc(C(=O)Nc4ccc([N+](C)(C)C)c(OC)c4)cc3)cc2)ccc1[N+](C)(C)C` [Example 35, 4,4′-(([1,1′-biphenyl]-4,4′-dicarbonyl)bis(azanediyl))bis(2-methoxy-N,N,N-trimethylbenzenaminium)] reads 650 µM.
